Laboratory results taken from patent publication US11445726B2, “Pyridinium salt and pest control agent” (Nippon Soda Co., Ltd., priority 2017, dated 2022).

Tests used:
Type in all cases: in vivo
[1] = tested on: diamide-based insecticide-resistant Plutella xylostella; test: Efficacy test against diamide-based insecticide-resistant Plutella xylostella; conditions: 125 ppm, cabbage leaves immersed, second instar larvae, 3 days
Experimental: (§1) 5 parts by weight of the compound of the present invention, 93.6 parts by weight of dimethylformamide, and 1.4 parts by weight of polyoxyethylene alkylaryl ether were mixed and dissolved to prepare an emulsion (1) containing 5% of an active ingredient.
(§2) The emulsion (I) was diluted with water so that the concentration of the compound of the present invention was 125 ppm. Cabbage leaves were immersed in the diluent for 30 seconds. The cabbage leaves were air dried and placed in a petri dish, and five second instar larvae of diamide-based insecticide-resistant P. xylostella were released.
(§3) The petri dish was left to stand in a thermostatic chamber at a temperature of 25° C. and a humidity of 60% during the test period. Mortality was evaluated when 3 days passed since the release of the insects, and the insecticidal rate was calculated. The test was repeated twice.

Thrips palmi = test: Efficacy test against Thrips palmi (spray on kidney bean leaf piece); conditions: 125 ppm spray, first instar larvae, 2 days
Experimental: as §1
1% agar was poured into a plastic petri dish (90 mm diameter), and a primary leaf piece of a kidney bean plant was placed thereon. 15 first instar larvae of T. palmi were inoculated thereon. The emulsion (I) was diluted with water so that the concentration of the compound of the present invention was 125 ppm. The diluent was sprayed on the leaf piece of the kidney bean plant. The petri dish was left to stand in a thermostatic chamber at a temperature of 25° C. and a humidity of 60% during the test period. Mortality of T. palmi was examined 2 days after that, and the insecticidal rate was calculated. The test was repeated twice.

Plutella xylostella = test: Efficacy test against Plutella xylostella (cabbage leaf dipping); conditions: 125 ppm, cabbage leaves immersed, second instar larvae, 3 days after release
Experimental: as §1
(§4) The emulsion (I) was diluted with water so that the concentration of the compound of the present invention was 125 ppm. Cabbage leaves were immersed in the diluent for 30 seconds. The cabbage leaves were air dried and placed in a petri dish, and five second instar larvae of P. xylostella were released. The petri dish was left to stand in a thermostatic chamber at a temperature of 25° C. and a humidity of 60% during the test period. Mortality was evaluated when 3 days passed since the release of the insects, and the insecticidal rate was calculated. The test was repeated twice.

Spodoptera litura = test: Efficacy test against Spodoptera litura (cabbage leaf dipping); conditions: 125 ppm, cabbage leaves immersed, second instar larvae, 6 days after release
Experimental: as §1
as §4, with “emulsion (1)” for “emulsion (I)”, “were” for “were air dried and”, “of S. litura” for “of P. xylostella”, “when 6” for “when 3”

Tetranychus urticae = test: Efficacy test against Tetranychus urticae (spray on kidney bean plants); conditions: 125 ppm spray on kidney bean plants, adult females removed after 3 days, surviving individuals 10 days after spraying
Source text: as §1
98.6 parts by weight of dimethylformamide, and 1.4 parts by weight of polyoxyethylene alkylaryl ether were mixed and dissolved to prepare an emulsion (11) containing no active ingredient.
Kidney bean plants were raised in No. 3 pots, and 8 adult females of T. urticae from Aomori Prefecture were inoculated on primary leaves. The emulsion (I) was diluted with water so that the concentration of the compound of the present invention was 125 ppm. The diluent was sprayed on the kidney bean plants (treated group).
On the same day, the emulsion (11) was diluted 400 times with water. The diluent was sprayed on the kidney bean plants (untreated group).
The above No. 3 pots were left to stand in a thermostatic chamber at a temperature of 25° C. and a humidity of 65% during the test period. The inoculated adult females of T. urticae were removed with an aspirator 3 days after spraying. Eggs were laid on the leaves. The number of surviving individuals was examined 10 days after spraying, and the control rate was calculated according to the following formula. The test was repeated twice. Control rate (%)=100×[1−Nt/Nc] […]

Mythimna separata = test: Efficacy test against Mythimna separata (maize leaf dipping); conditions: 125 ppm, maize leaf pieces immersed, second instar larvae, 6 days after release
Experimental: as §1
The emulsion (1) was diluted with water so that the concentration of the compound of the present invention was 125 ppm. Maize leaf pieces were immersed in the diluent for 30 seconds. The maize leaf pieces were placed in a petri dish, and five second instar larvae of M. separata were released.
The petri dish was left to stand in a thermostatic chamber at a temperature of 25° C. and a humidity of 60% during the test period. Mortality was evaluated when 6 days passed since the release of the insects, and the insecticidal rate was calculated. The test was repeated twice.

[2] = tested on: benzoylurea-based insecticide-resistant Helicoverpa armigera; test: Efficacy test against benzoylurea-based insecticide-resistant Helicoverpa armigera; conditions: 125 ppm, cabbage leaves immersed, second instar larvae, 3 days
Experimental: as §1
as §2, with “8” for “five”, “benzoylurea-based” for “diamide-based”, “H. armigera” for “P. xylostella”, “inoculated.” for “released.”
as §3

For `O=C(N[n+]1ccccc1)c1ccc(Cl)cc1` [comparative compound A], the “insecticidal rate against diamide-based insecticide-resistant P. xylostella” value [1] was 0%, the “insecticidal rate against T. palmi” value (Thrips palmi) was 0% and the “insecticidal rate against P. xylostella” value (Plutella xylostella) was 0%. The “insecticidal rate against S. litura” value (Spodoptera litura) was 0%, the “control rate against T. urticae” value (Tetranychus urticae) was 100% and the “insecticidal rate against M. separata” value (Mythimna separata) was 0%. The “insecticidal rate against benzoylurea-based insecticide-resistant H. armigera” value [2] was 0%.
